Measured values: patent publication US20070208166A1, “Tao Kinase Modulators And Method Of Use” (Exelixis, Inc., priority 2003, published 2007)

Columns and labels:
Type in all cases: biochemical
[1] = target: T1, KIAA 1361 (baculovirus expressed human KIAA 1361 kinase domain 2-322) (Homo sapiens, UniProt Q7L7X3); assay: KIAA 1361 Luciferase-Coupled Chemiluminescent Kinase assay (LCCA); conditions: 2 μM ATP, 10 μM MBP, 12 nM KIAA 1361, 2 hours; read-out: KIAA1361 inhibition IC50
T1 construct: human KIAA 1361 kinase domain 2-322; made in house
T1 sequence (Q7L7X3 2-322): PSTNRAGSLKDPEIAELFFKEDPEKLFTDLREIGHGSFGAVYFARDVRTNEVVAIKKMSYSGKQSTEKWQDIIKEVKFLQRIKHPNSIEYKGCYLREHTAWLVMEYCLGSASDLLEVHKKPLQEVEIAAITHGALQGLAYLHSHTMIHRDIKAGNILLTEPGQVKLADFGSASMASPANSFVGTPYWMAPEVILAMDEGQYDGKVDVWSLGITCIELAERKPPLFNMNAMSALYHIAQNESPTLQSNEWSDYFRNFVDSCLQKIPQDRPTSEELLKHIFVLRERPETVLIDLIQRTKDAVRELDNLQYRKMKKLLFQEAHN
Summary of the method: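 KIAA 1361 kinase domain 2-322 (baculovirus, 12 nM) with 2 μM ATP and 10 μM MBP in Tris pH 7.5, MgCl2, MnCl2; 2 h, ambient. Remaining ATP read by luciferase chemiluminescence; 10 concentrations, IC50 by four-parameter fit.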

[2] = target: T2, TAO (Homo sapiens, UniProt Q9UL54); assay: TAO Luciferase-Coupled Chemiluminescent Kinase assay (LCCA); conditions: 2 μM ATP, 10 μM MBP, 12 nM TAO, 2 hours; read-out: TAO inhibition IC50
T2 sequence (Q9UL54 1-1235): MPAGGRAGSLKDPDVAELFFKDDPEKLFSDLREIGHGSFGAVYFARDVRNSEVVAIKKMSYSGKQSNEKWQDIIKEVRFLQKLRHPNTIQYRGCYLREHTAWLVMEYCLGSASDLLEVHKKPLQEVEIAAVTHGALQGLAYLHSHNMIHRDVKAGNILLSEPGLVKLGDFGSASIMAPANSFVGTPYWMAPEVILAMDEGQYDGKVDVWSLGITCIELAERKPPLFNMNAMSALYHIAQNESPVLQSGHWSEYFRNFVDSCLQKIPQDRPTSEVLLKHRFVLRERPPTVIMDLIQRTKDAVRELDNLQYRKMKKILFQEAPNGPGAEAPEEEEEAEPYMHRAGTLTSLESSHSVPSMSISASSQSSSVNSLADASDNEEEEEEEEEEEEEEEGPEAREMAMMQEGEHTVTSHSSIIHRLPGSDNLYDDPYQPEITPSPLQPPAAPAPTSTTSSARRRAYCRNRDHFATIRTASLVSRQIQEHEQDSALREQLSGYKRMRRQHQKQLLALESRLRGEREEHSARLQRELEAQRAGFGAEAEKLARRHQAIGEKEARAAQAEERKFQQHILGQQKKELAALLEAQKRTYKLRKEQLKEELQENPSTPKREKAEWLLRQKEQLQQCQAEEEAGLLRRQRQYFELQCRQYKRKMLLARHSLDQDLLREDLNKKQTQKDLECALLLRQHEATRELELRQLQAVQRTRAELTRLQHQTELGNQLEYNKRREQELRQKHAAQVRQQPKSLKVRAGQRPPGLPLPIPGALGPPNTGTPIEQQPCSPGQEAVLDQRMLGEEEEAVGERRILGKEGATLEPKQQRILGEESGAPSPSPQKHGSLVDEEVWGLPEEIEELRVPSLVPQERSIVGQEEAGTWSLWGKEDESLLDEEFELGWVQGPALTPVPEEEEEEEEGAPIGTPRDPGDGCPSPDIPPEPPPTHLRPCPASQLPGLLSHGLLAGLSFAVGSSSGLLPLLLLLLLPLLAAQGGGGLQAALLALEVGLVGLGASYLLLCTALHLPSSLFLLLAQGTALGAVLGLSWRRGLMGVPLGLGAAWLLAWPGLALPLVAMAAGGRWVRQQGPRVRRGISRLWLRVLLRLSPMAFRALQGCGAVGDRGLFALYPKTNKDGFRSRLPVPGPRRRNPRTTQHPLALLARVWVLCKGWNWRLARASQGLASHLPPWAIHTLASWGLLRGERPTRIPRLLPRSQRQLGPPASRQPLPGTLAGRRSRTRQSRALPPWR

[3] = target: T3, JIK (Homo sapiens, UniProt Q9H2K8); assay: JIK Luciferase-Coupled Chemiluminescent Kinase assay (LCCA); conditions: 2 μM ATP, 10 μM MBP, 6 nM JIK, 2 hours; read-out: JIK inhibition IC50
T3 construct: 6 nM JIK (baculovirus expressed human KIAA 1361 kinase domain2-318); made in house
T3 sequence (Q9H2K8 2-318): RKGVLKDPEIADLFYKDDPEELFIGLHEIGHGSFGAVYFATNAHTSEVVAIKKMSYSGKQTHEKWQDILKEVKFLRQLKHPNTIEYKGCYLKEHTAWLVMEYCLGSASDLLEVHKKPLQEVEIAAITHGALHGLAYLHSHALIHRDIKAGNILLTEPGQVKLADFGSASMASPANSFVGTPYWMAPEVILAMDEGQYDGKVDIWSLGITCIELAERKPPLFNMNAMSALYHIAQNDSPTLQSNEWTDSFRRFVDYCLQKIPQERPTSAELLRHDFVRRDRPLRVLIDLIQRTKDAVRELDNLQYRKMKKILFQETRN
Summary of the method: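 Baculovirus-expressed human KIAA 1361 kinase domain 2-318 at 6 nM, with 10 μM MBP and 2 μM ATP in Tris pH 7.5 with Mg/Mn, ran 2 h at ambient temperature. Remaining ATP was read by luciferase chemiluminescence. IC50 comes from a 10-concentration four-parameter fit.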

Compound | IC50 [1] | IC50 [2] | IC50 [3]
CCOCCCNC(=O)c1ccc(C(=O)NCC2COc3ccccc3O2)cc1N (stereo not drawn) [Entry 62, 2-amino-N-˜4˜-(2,3-dihydro-1,4-benzodioxin-2-ylmethyl)-N˜1˜-[3-(ethyloxy)propyl]benzene-1,4-dicarboxamide] | > 5 µM | > 5 µM | > 5 µM
COc1ccc2nc(NC(=O)CNC(=O)CC(NC(=O)c3ccccc3)c3ccccc3)sc2c1 (stereo not drawn) [Entry 63, N-{3-[(2-{[6-(methyloxy)-1,3-benzothiazol-2-yl]amino}-2-oxoethyl)amino]-3-oxo-1-phenylpropyl}benzamide] | < 0.05 µM | < 0.05 µM | < 0.05 µM
CCc1ccc(-c2ccc(C(=O)NCC(=O)Nc3nc4ccc(OC)cc4s3)cc2)cc1 [Entry 64, 4′ethyl-N-(2-{[6-(methyloxy)-1,3-benzothiazol-2-yl]amino}-2-oxoethyl)biphenyl-4-carboxamide] | > 5 µM | > 5 µM | > 5 µM
CCc1ccc(-c2ccc(C(=O)NCC(=O)NCC3COc4ccccc4O3)cc2)cc1 (stereo not drawn) [Entry 65, N-{2-[(2,3-dihydro-1,4-benzodioxin-2-ylmethyl)amino]-2-oxoethyl}-4′-ethylbiphenyl-4-carboxamide] | > 5 µM | > 5 µM | > 5 µM
CCc1ccc(-c2ccc(C(=O)N(C)CC(=O)NC3CCCc4ccccc43)cc2)cc1 (stereo not drawn) [Entry 66, 4′-ethyl-N-methyl-N-[2-oxo-2-(1,2,3,4-tetrahydronaphthalen-1-ylamino)ethyl]biphenyl-4-carboxamide] | > 5 µM | > 5 µM | > 5 µM
CCc1ccc(-c2ccc(C(=O)NCC(=O)Nc3cccc4ccccc34)cc2)cc1 [Entry 67, 4′-ethyl-N-[2-(naphthalen-1-ylamino)-2-oxoethyl]biphenyl-4-carboxamide] | < 0.05 µM | 0.05 to 0.5 µM | < 0.05 µM
CCc1ccc(-c2ccc(C(=O)NCC(=O)N3CCN(c4ccccc4)CC3)cc2)cc1 [Entry 68, 4′-ethyl-N-[2-oxo-2-(4-phenylpiperazin-1-yl)ethyl]biphenyl-4-carboxamide] | > 5 µM | > 5 µM | > 5 µM
O=C(CNCc1ccc(-c2ccccc2)cc1)NC1CCCc2ccccc21 (stereo not drawn) [Entry 69, N˜2˜-(biphenyl-4-ylmethyl)-N-(1,2,3,4-tetrahydronaphthalen-1-yl)glycinamide] | > 5 µM | > 5 µM | > 5 µM
O=C(CNC(=O)c1ccc(-n2ccnc2)cc1)NC1CCCc2ccccc21 (stereo not drawn) [Entry 70, 4-(1H-imidazol-1-yl)-N-[2-oxo-2-(1,2,3,4-tetrahydronaphthalen-1-ylamino)ethyl]benzamide] | 0.5 to 5 µM | 0.5 to 5 µM | 0.05 to 0.5 µM
O=C(CNC(=O)c1ccc(-c2cnco2)cc1)NC1CCCc2ccccc21 (stereo not drawn) [Entry 71, 4-(1,3-oxazol-5-yl)-N-[2-oxo-2-(1,2,3,4-tetrahydronaphthalen-1-ylamino)ethyl]benzamide] | 0.05 to 0.5 µM | 0.05 to 0.5 µM | < 0.05 µM
O=C(CNC(=O)NCCc1ccc(-c2ccccc2)cc1)NC1CCCc2ccccc21 (stereo not drawn) [Entry 72, N˜2˜-{[(2-biphenyl-4-ylethyl)amino]carbonyl}-N-(1,2,3,4-tetrahydronaphthalen-1-yl)glycinamide] | > 5 µM | > 5 µM | > 5 µM
O=C(CNC(=O)Nc1ccc(-c2ccccc2)cc1)NC1CCCc2ccccc21 (stereo not drawn) [Entry 73, N˜2˜-[(biphenyl-4-ylamino)carbonyl]-N-(1,2,3,4-tetrahydronaphthalen-1-yl)glycinamide] | > 5 µM | > 5 µM | 0.05 to 0.5 µM
CCc1ccc(-c2ccc(C(=O)NCC(=O)NCc3ccccc3C)cc2)cc1 [Entry 74, 4′-ethyl-N-(2-{[(2-methylphenyl)methyl]amino}-2-oxoethyl)biphenyl-4-carboxamide] | 0.05 to 0.5 µM | 0.05 to 0.5 µM | 0.05 to 0.5 µM
CCc1ccc(-c2ccc(C(=O)NCC(=O)NCCc3ccccc3)cc2)cc1 [Entry 75, 4′-ethyl-N-{2-oxo-2-[(2-phenylethyl)amino]ethyl}biphenyl-4-carboxamide] | > 5 µM | > 5 µM | > 5 µM
CCc1ccc(-c2ccc(C(=O)NCC(=O)N[C@@H]3CCCc4ccccc43)cc2)cc1 [Entry 76, 4′-ethyl-N-{2-oxo-2-[(1R)-1,2,3,4-tetrahydronaphthalen-1-ylamino]ethyl}biphenyl-4-carboxamide] | > 5 µM | > 5 µM | > 5 µM
O=C(CNC(=O)c1ccc(N2CCCCC2)cc1)NC1CCCc2ccccc21 (stereo not drawn) [Entry 77, N-[2-oxo-2-(1,2,3,4-tetrahydronaphthalen-1-ylamino)ethyl]-4-piperidin-1-ylbenzamide] | 0.5 to 5 µM | 0.5 to 5 µM | 0.05 to 0.5 µM
CCc1ccc(-c2ccc(C(=O)NCC(=O)NC(C)c3ccccc3)cc2)cc1 (stereo not drawn) [Entry 78, 4′-ethyl-N-{2-oxo-2-[(1-phenylethyl)amino]ethyl}biphenyl-4-carboxamide] | 0.5 to 5 µM | > 5 µM | 0.05 to 0.5 µM
CCc1ccc(-c2ccc(C(=O)NCC(=O)NCc3ccccc3C(F)(F)F)cc2)cc1 [Entry 79, 4′-ethyl-N-[2-oxo-2-({[2-(trifluoromethyl)phenyl]methyl}amino)ethyl]biphenyl-4-carboxamide] | 0.05 to 0.5 µM | > 5 µM | 0.05 to 0.5 µM
O=C(CNC(=O)c1ccc2ncccc2c1)NC1CCCc2ccccc21 (stereo not drawn) [Entry 80, N-[2-oxo-2-(1,2,3,4-tetrahydronaphthalen-1-ylamino)ethyl]quinoline-6-carboxamide] | 0.5 to 5 µM | 0.5 to 5 µM | 0.05 to 0.5 µM
O=C(CC(NC(=O)c1ccccc1)c1ccccc1)NCC(=O)NC1CCCc2ccccc21 (stereo not drawn) [Entry 81, N-(3-oxo-3-{[2-oxo-2-(1,2,3,4-tetrahydronaphthalen-1-ylamino)ethyl]amino}-1-phenylpropyl)benzamide] | > 5 µM | > 5 µM | > 5 µM
O=C(CNC(=O)c1ccc2c(c1)CCCC2)NC1CCCc2ccccc21 (stereo not drawn) [Entry 82, N-[2-oxo-2-(1,2,3,4-tetrahydronaphthalen-1-ylamino)ethyl]-5,6,7,8-tetrahydronaphthalene-2-carboxamide] | > 5 µM | > 5 µM | 0.5 to 5 µM
CCc1ccc(-c2ccc(C(=O)NCC(=O)NC(CC)c3ccccc3)cc2)cc1 (stereo not drawn) [Entry 83, 4′-ethyl-N-{2-oxo-2-[(1-phenylpropyl)amino]ethyl}biphenyl-4-carboxamide] | 0.5 to 5 µM | > 5 µM | 0.05 to 0.5 µM
